Results published in ChEMBL document CHEMBL1201862, “PubChem BioAssay data set” (2004).
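Values below derive from 48-hour exposures of cells grown in 96-well plates, with endpoints linearly interpolated between the two concentrations bracketing the appropriate inhibition level. GI50: concentration for 50% inhibition of growth.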 Calls of active or inactive are those of the source. Cut-off read from the data, not from the text of the source: active = GI50 up to about 1.1 µM and inactive = higher.

Legend:
Assay in all cases: NCI tumour cell line growth inhibition, 48 h
MCF7 = system: MCF7
T47D = system: T47D
M14 = system: M14
HT-29 = system: HT-29
UACC-257 = system: UACC-257
DU-145 = system: DU-145
NCI-H226 = system: NCI-H226
NCI-H522 = system: NCI-H522
BT-549 = system: BT-549
OVCAR-8 = system: OVCAR-8
COLO 205 = system: COLO 205
NCI-H23 = system: NCI-H23
OVCAR-5 = system: OVCAR-5
SK-OV-3 = system: SK-OV-3
A498 = system: A498
MOLT-4 = system: MOLT-4
SF-268 = system: SF-268
NCI/ADR-RES = system: NCI/ADR-RES
CAKI-1 = system: CAKI-1

| SMILES | GI50 (MCF7) | GI50 (T47D) | GI50 (M14) | GI50 (HT-29) | GI50 (UACC-257) | GI50 (DU-145) | GI50 (NCI-H226) | GI50 (NCI-H522) | GI50 (BT-549) | GI50 (OVCAR-8) | GI50 (COLO 205) | GI50 (NCI-H23) | GI50 (OVCAR-5) | GI50 (SK-OV-3) | GI50 (A498) | GI50 (MOLT-4) | GI50 (SF-268) | GI50 (NCI/ADR-RES) | GI50 (CAKI-1) |
| --- | --- | --- | --- | --- | --- | --- | --- | --- | --- | --- | --- | --- | --- | --- | --- | --- | --- | --- | --- |
| O=S1(=O)c2ccccc2N2C(c3ccccc3)=NOC2(c2ccccc2)CC1c1ccc(Br)cc1 (stereo not given) | > 100 µM (inactive) | > 100 µM (inactive) | 95.7 µM (inactive) | > 100 µM (inactive) | > 100 µM (inactive) | > 100 µM (inactive) | > 100 µM (inactive) | > 100 µM (inactive) | > 100 µM (inactive) | > 100 µM (inactive) | > 100 µM (inactive) | > 100 µM (inactive) | > 100 µM (inactive) | > 100 µM (inactive) | > 100 µM (inactive) | > 100 µM (inactive) | > 100 µM (inactive) | > 100 µM (inactive) |  |
| Cc1c(-c2nc(N)c(C#N)c(N)c2C#N)c(=O)oc2ccccc12 | 73.6 µM (inactive) | 89.5 µM (inactive) | > 100 µM (inactive) | 83 µM (inactive) | > 100 µM (inactive) | > 100 µM (inactive) | > 100 µM (inactive) |  | > 100 µM (inactive) | > 100 µM (inactive) | 60.7 µM (inactive) | 87.9 µM (inactive) | > 100 µM (inactive) | > 100 µM (inactive) | > 100 µM (inactive) |  | > 100 µM (inactive) | > 100 µM (inactive) | > 100 µM (inactive) |
| COC(=O)/C=C(\S/C(=C(/c1ccccc1)n1cc(C(=O)OC)c(C(=O)OC)n1)c1ccccc1)C(=O)OC | 5.26 µM (inactive) | 3.27 µM (inactive) | 12.9 µM (inactive) | 3.33 µM (inactive) | 7.33 µM (inactive) | 14.7 µM (inactive) | 89.1 µM (inactive) |  | 38.5 µM (inactive) | 2 µM (inactive) | 1.74 µM (inactive) | 18.1 µM (inactive) | 18.7 µM (inactive) | > 100 µM (inactive) | > 100 µM (inactive) | 2.31 µM (inactive) | 16.1 µM (inactive) | 28.4 µM (inactive) | 2.48 µM (inactive) |
| Brc1ccc(/N=N/c2ccc3ccccc3n2)cc1 | 25.6 µM (inactive) | 22.2 µM (inactive) | > 100 µM (inactive) | 47.4 µM (inactive) | 82.8 µM (inactive) | > 100 µM (inactive) | 10.6 µM (inactive) | 0.0372 µM (active) | 14.5 µM (inactive) | 30.3 µM (inactive) | > 100 µM (inactive) | 27.8 µM (inactive) | 64.9 µM (inactive) | 22.9 µM (inactive) |  |  | 22.3 µM (inactive) | 33.3 µM (inactive) | 14.1 µM (inactive) |
| CN(NC(=O)CCCl)C1=NCCN1 | > 100 µM (inactive) | > 100 µM (inactive) | > 100 µM (inactive) | > 100 µM (inactive) | > 100 µM (inactive) | > 100 µM (inactive) | > 100 µM (inactive) | > 100 µM (inactive) | > 100 µM (inactive) | > 100 µM (inactive) | > 100 µM (inactive) | > 100 µM (inactive) | > 100 µM (inactive) | > 100 µM (inactive) | > 100 µM (inactive) | > 100 µM (inactive) | > 100 µM (inactive) | > 100 µM (inactive) |  |
| Cc1nc(N)c(N2CCN(C(=O)O)CC2)c(O)n1 | > 100 µM (inactive) | > 100 µM (inactive) | > 100 µM (inactive) | > 100 µM (inactive) | > 100 µM (inactive) | > 100 µM (inactive) | > 100 µM (inactive) | > 100 µM (inactive) | > 100 µM (inactive) | > 100 µM (inactive) | > 100 µM (inactive) | > 100 µM (inactive) | > 100 µM (inactive) |  | > 100 µM (inactive) | > 100 µM (inactive) | > 100 µM (inactive) | > 100 µM (inactive) |  |
| O=C(Nc1cc2c(=O)oc3ccccc3c2oc1=O)c1cccnc1 | > 100 µM (inactive) | > 100 µM (inactive) | 79.6 µM (inactive) | > 100 µM (inactive) | > 100 µM (inactive) | > 100 µM (inactive) | > 100 µM (inactive) | > 100 µM (inactive) | > 100 µM (inactive) | 45 µM (inactive) | > 100 µM (inactive) | > 100 µM (inactive) | > 100 µM (inactive) | > 100 µM (inactive) |  | > 100 µM (inactive) |  | > 100 µM (inactive) | > 100 µM (inactive) |
| O=C(Cc1ccc(O)c(O)c1)NCc1c[nH]c2ccccc12 | 42 µM (inactive) | > 100 µM (inactive) | 35.5 µM (inactive) | > 100 µM (inactive) | 70.5 µM (inactive) | 29.1 µM (inactive) |  | 32.6 µM (inactive) | 43.9 µM (inactive) | 71.6 µM (inactive) | 42 µM (inactive) | 39.1 µM (inactive) | > 100 µM (inactive) | > 100 µM (inactive) | > 100 µM (inactive) | 20.4 µM (inactive) | 37.8 µM (inactive) | 46.6 µM (inactive) | 31.2 µM (inactive) |
